Common to all, as to assay: NCI tumour cell line growth inhibition, 48 h
For assay [1], the system named is OVCAR-8 ovarian.
The subject of assay [2] is SK-MEL-5 melanoma.
The test system of assay [3] is COLO 205 colon.
Assay [4] concerns LOX IMVI melanoma.
Assay [5] has as its system NCI-H226 lung.
Assay [6] relates to HL-60(TB) leukemia.
The test system of assay [7] is SK-OV-3 ovarian.
Assay [8] has as its system SNB-75 CNS.
In assay [9] the test system is SF-539 CNS.
Assay [10] has as its system BT-549 breast.

SMILES strings stand for the structures.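 A five-concentration, 48-hour dose response in 96-well plates underlies each endpoint, interpolated linearly between surrounding concentrations. The concentration for 50% growth inhibition is given as GI50. At the TGI there is no net growth.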

`Cc1c2cc(Cl)c3ccccc3c2c[n+]2ccccc12`: the GI50 in assay [1] is 2.42 µM; in assay [2], 1.22 µM; in assay [3], 1.83 µM; in assay [4], 15 µM; in [5] it was 1.8 µM; in [6], 19.2 µM. Moreover, the GI50 was 10.3 µM in assay [7], 2.31 µM in [8], 1.71 µM in assay [9] and 1.21 µM in assay [10]. The TGI worked out at 26.7 µM in [1]; 2.92 µM in [2]; 10.2 µM in assay [3]; 38.9 µM in assay [4]; 14.2 µM in assay [5]; 55.3 µM in assay [6]. Besides, the TGI in assay [7] turned out to be 53.5 µM; in [8], 12.9 µM; in [9] it was 9.35 µM; in assay [10] it was 5.4 µM.
`COC(=O)COc1ccc(/C=C2/N=C(c3ccccc3)N(c3c(C)n(C)n(-c4ccccc4)c3=O)C2=O)cc1`: the GI50 in assay [1] was 18.8 µM; in assay [2] it was 26 µM; in [3], 16 µM; in assay [4], 18 µM; in [5], 25.3 µM; in [6], 26.2 µM. Besides, the GI50 in [7] was 17.3 µM; in [8] it was 16.7 µM; in assay [9], 16.1 µM; in assay [10] it was 17.1 µM. The TGI in assay [1] amounted to 33.7 µM; in assay [2], 60.7 µM; in assay [3] it was 35.9 µM; in assay [4], 32.8 µM; in [5], 63.5 µM; in [6], 67.2 µM. Further, the TGI was 37.9 µM in [7], 30.7 µM in [8], 30.2 µM in [9] and 42 µM in [10].
For `O=C1CC(c2[nH]nc3ccccc23)C(=O)N1c1ccccc1` (configuration not stated), the TGI in assay [1] was greater than 100 µM; in assay [2], greater than 100 µM; in [3] it was greater than 100 µM; in assay [4], greater than 100 µM; in [5], greater than 100 µM; in [6], 70.4 µM. For the same compound, the TGI in [7], in assay [8], in assay [9] and in [10] was greater than 100 µM throughout.
With `O=c1cc(N/N=C/c2ccc(F)cc2)c2cc(Cl)ccc2[nH]1`, the GI50 in assay [1] is 19.8 µM; in [2], 3.54 µM; in assay [3], 18.2 µM; in assay [4] it was 25.3 µM; in assay [5], 14.6 µM; in [6], 18.8 µM. In addition, the GI50 in assay [7] was 20.1 µM; in [8], 12.7 µM; in [9], 23.6 µM; in assay [10], 15.8 µM. Further, the TGI is greater than 100 µM in [1]; 14.1 µM in assay [2]; 43.5 µM in [3]; greater than 100 µM in [4]; greater than 100 µM in assay [5]; 50.9 µM in [6]. Besides, the TGI in assay [7] was found to be 83.4 µM; in assay [8] it was 83.1 µM; in assay [9], 78.2 µM; in assay [10] it was 44.5 µM.
Take `CN(C)c1nc2ccccc2c2c1c1c(n2Cc2ccccc2)-c2ccccc2C1=O`: the GI50 is greater than 100 µM in assay [1]; 39.1 µM in [2]; greater than 100 µM in assay [3]; greater than 100 µM in assay [4]; greater than 100 µM in assay [5]; 91.6 µM in assay [6]. Moreover, the GI50 in assay [7] is greater than 100 µM; in assay [8] it was 54.2 µM; in assay [9], greater than 100 µM; in [10], greater than 100 µM. The TGI in assay [1], in [2], in assay [3], in [4], in assay [5] and in assay [6] was greater than 100 µM throughout. In addition, the TGI in assay [7], in assay [8], in assay [9] and in [10] was greater than 100 µM throughout.
As to `CC(C)Cc1ccc(C(C)CC2=CCC(CN(C)C)C2=O)cc1` (configuration not stated), the TGI in assay [1] amounted to 20.3 µM; in assay [2], 28.9 µM; in assay [3], 6.77 µM; in assay [4], 9.84 µM; in [5], 33.7 µM; in [6], 4.47 µM. For the same compound, the TGI in [7] came out at 31.7 µM; in assay [8], 29.5 µM; in [9] it was 30.9 µM; in assay [10], 38.9 µM.
With `Cn1cc(-c2ccc3nnc(Sc4ccc5ncccc5c4)n3n2)cn1`, the GI50 is 66.7 µM in [1]; greater than 74.3 µM in assay [2]; 30.4 µM in assay [3]; 57.8 µM in assay [4]; greater than 59.1 µM in assay [5]; greater than 100 µM in assay [6]. For the same compound, the GI50 in assay [7] was greater than 73.9 µM; in assay [8], 26.1 µM; in assay [9] it was greater than 93.4 µM; in assay [10], 48.7 µM. Moreover, the TGI in assay [1], in assay [2], in [3], in [4], in assay [5] and in assay [6] was greater than 100 µM throughout. In addition, the TGI in assay [7], in [8], in [9] and in [10] was greater than 100 µM throughout.
Turning to `COc1ccc(-c2nc(-c3nc4ccc(F)cc4[nH]3)c3ccccn23)cc1`, the GI50 in assay [1] was 3.76 µM; in assay [2], 2.2 µM; in assay [3], 78.1 µM; in assay [4], 10.8 µM; in [5], 2.72 µM; in assay [6] it was 39.8 µM. Moreover, the GI50 was 10.3 µM in assay [7], 3.4 µM in assay [8], 10.4 µM in [9] and 4.84 µM in [10]. Besides, the TGI was 23.4 µM in assay [1]; 6.71 µM in assay [2]; greater than 100 µM in assay [3]; greater than 100 µM in assay [4]; 9.06 µM in [5]; greater than 100 µM in [6]. For the same compound, the TGI in assay [7] is 37.3 µM; in assay [8], 12.4 µM; in assay [9], 45.2 µM; in assay [10], 22.9 µM.
Turning to `C=CC(=O)Nc1cc(N2CCN(CC)CC2)ccc1Nc1cc(N(C)C(=O)Nc2c(Cl)c(OC)cc(OC)c2Cl)ncn1`, the GI50 in [1] is 4.38 µM; in [2] it was 11.3 µM; in [3], 4.16 µM; in assay [4], 2.82 µM; in [5] it was 14.2 µM; in assay [6] it was 4.91 µM. For the same compound, the GI50 in assay [7] was 12.3 µM; in assay [8], 2.48 µM; in assay [9] it was 3.53 µM; in assay [10], 3.07 µM. Also, the TGI was 18.1 µM in assay [1]; 23.9 µM in [2]; 18.3 µM in [3]; 11.9 µM in [4]; 35.8 µM in assay [5]; 25.3 µM in [6]. Besides, the TGI in [7] was 27.5 µM; in [8] it was 14.2 µM; in assay [9] it was 15.2 µM; in [10], 15.1 µM.
Turning to `O=P1(S)OC[C@H]2O[C@@H]3[C@H](F)[C@@H]2OP(O)(=S)OC[C@H]2O[C@H]([C@H](F)[C@@H]2O1)n1cnc2c(ncnc21)NC/C=C/CNc1ncnc2c1ncn23` (some centres not stated), the GI50 in assay [1] was greater than 100 µM; in assay [2], greater than 100 µM; in assay [3] it was greater than 100 µM; in assay [4], greater than 100 µM; in [5] it was 0.652 µM; in [6] it was 0.365 µM. Also, the GI50 in assay [7] was 5.08 µM; in [8], greater than 79.9 µM; in assay [9], 0.229 µM. Further, the TGI in assay [1], in assay [2], in [3], in assay [4], in assay [5] and in assay [7] was greater than 100 µM throughout. For the same compound, the TGI in assay [8] was greater than 100 µM; in [9], greater than 39.9 µM; in assay [10], greater than 100 µM.
Regarding `C1CC[N-]CC1.CC(=N\O)/C(C)=N/O.CC(=N\O)/C(C)=N/O.OC1[CH-]CCCC1.[Co+2]`, the GI50 in [1] was 28.9 µM; in assay [2], 34.6 µM; in [3], 19 µM; in assay [4] it was 36.4 µM; in [5] it was greater than 100 µM; in assay [6], 21.7 µM. Further, the GI50 in [7] is greater than 100 µM; in assay [8], 26.9 µM; in assay [9] it was 25.5 µM; in assay [10], 37.8 µM. For the same compound, the TGI in [1] is greater than 100 µM; in assay [2], greater than 100 µM; in [3] it was 34.5 µM; in assay [4] it was greater than 100 µM; in [5] it was greater than 100 µM; in assay [6], 72.5 µM. The TGI in [7] is greater than 100 µM; in [8] it was greater than 100 µM; in assay [9] it was 71.1 µM; in assay [10], greater than 100 µM.
Regarding `COC(=O)C1C(O)C(C)C(O)C(C)C=C(C)C2=C3C(=C(C)C(=O)c4c(O)c(c(C)c(OC(C)=O)c43)NC(=O)C(C)=C/C=C\C(C)C(O)C(C)C1O)OCO2` (configuration not stated), the TGI was greater than 100 µM in assay [1]; 39.4 µM in assay [2]; 63.6 µM in assay [3]; 43 µM in assay [4]; greater than 100 µM in assay [5]; 41.6 µM in [6]. For the same compound, the TGI in [7] was greater than 100 µM; in assay [8], 92.9 µM; in [9], greater than 100 µM; in assay [10], 39.2 µM.
In the case of `O=C1CCC(N2C(=O)c3ccccc3C2=O)C(=O)N1` (configuration not stated), the TGI in assay [1], in [2], in [3], in assay [4], in [5] and in assay [6] was greater than 100 µM each time. In addition, the TGI in assay [7], in assay [8], in assay [9] and in [10] was greater than 100 µM in each case. In addition, the GI50 in [4], in assay [5], in assay [6] and in assay [9] was greater than 100 µM each time.
With `c1ccc(-c2nc(N3CCOCC3)c3c4c(sc3n2)CCCCCC4)nc1`, the GI50 in assay [1] was 5.08 µM; in assay [2], 1.99 µM; in [3] it was 9.4 µM; in assay [4], 5.24 µM; in [5] it was 5 µM; in assay [6] it was 4.49 µM. The GI50 in assay [7] is 9.25 µM; in [8], 7.1 µM; in [9], 13 µM; in assay [10] it was 4.38 µM. Also, the TGI worked out at 30.5 µM in assay [1]; 9.45 µM in assay [2]; 22.3 µM in assay [3]; 20.9 µM in [4]; 24 µM in [5]; 22.8 µM in assay [6]. For the same compound, the TGI in assay [7] came to 22.5 µM; in [8], 20.8 µM; in assay [9], 26.7 µM; in [10], 16.7 µM.
With `O=C(Oc1ccc(CO[N+](=O)[O-])cc1)c1ccccc1`, the GI50 in assay [1] is 0.153 µM; in assay [2], 0.474 µM; in [3], 0.128 µM; in [4], 0.163 µM; in assay [5], 0.214 µM; in assay [6] it was 0.0514 µM. For the same compound, the GI50 in assay [7] was 0.348 µM; in assay [8], 0.158 µM; in [9], 0.153 µM; in [10], 0.139 µM. In addition, the TGI was determined as 0.288 µM in assay [1]; 1.73 µM in assay [2]; 0.301 µM in assay [3]; 0.316 µM in assay [4]; 0.518 µM in assay [5]; 0.267 µM in assay [6]. Further, the TGI in assay [7] was 1.3 µM; in assay [8], 0.333 µM; in [9] it was 0.287 µM; in [10] it was 0.27 µM.
Take `Cc1nn2c(/C=C3/C(=O)Nc4cc(Cl)ccc43)c(-c3ccccc3)nc2s1`: the GI50 was 2.89 µM in assay [1]; 3.17 µM in assay [2]; 74.4 µM in assay [3]; 2.41 µM in assay [4]; 4.56 µM in assay [5]; greater than 100 µM in [6]. For the same compound, the GI50 is 14.3 µM in [7], 1.6 µM in [8], 1.71 µM in assay [9] and 6.63 µM in assay [10]. Moreover, the TGI in assay [1] is greater than 100 µM; in assay [2], greater than 100 µM; in assay [3], greater than 100 µM; in assay [4] it was 6.02 µM; in assay [5], 63.7 µM; in [6], greater than 100 µM. Also, the TGI in assay [7] is greater than 100 µM; in assay [8], 8.44 µM; in assay [9] it was 3.46 µM; in [10], greater than 100 µM.

The record behind these values is PubChem BioAssay (NCI).
